Assay [1] concerns the target T1, recombinant human CD64 protein (Homo sapiens, UniProt P12314).
T1 construct: purchased R&D Systems
Put plainly: ELISA binding to CD64. Conditions: titration. On the procedure:
Maxysorp ELISA plates were coated overnight with 1.5 ug/ml recombinant human CD64 protein (R&D Systems). Plates were blocked with PBS containing 1% BSA, and incubated with a titration of Rituximab or Rituximab immunoconjugates (Rituximab BB-01). Bound antibodies were detected with Peroxidase conjugated AffiniPure F(ab′)2 Fragment Goat Anti-Human IgG (Jackson) using TMB color development and absorbance at 450 nm was measured after stopping the reaction.

For assay [2], the system named is human APCs (myeloid cells). The assay can be described thus: Cytokine secretion from human APCs / myeloid cells (cell free supernatants). Format: cell-based. Conditions: 18 hours. On the procedure:
After 18 hours, cell free supernatants were analyzed for cytokine secretion via cytokine bead arrays; n=3. P-values≤0.05 depicted by *, P-values≤0.01 depicted by **, P-values≤0.001 depicted by ***, P-values≤0.0001 depicted by ****.
2×10^5 APCs were incubated with or without 6.5×10^5 autologous or allogeneic CFSE-labeled tumor cells in 96-well plates (Corning) containing IMDM medium (Gibco) supplemented with 10% fetal bovine serum, 100 U/mL penicillin, 100 μg/mL streptomycin, 2 mM L-glutamine, sodium pyruvate, non-essential amino acids, 50 μM 2-ME and, where indicated, various concentrations of anti-tumor antibody and the indicated adjuvants. […]
While the expression of T cell stimulatory molecules such as CD40, CD86 and HLA-DR is necessary for effective T cell activation, APCs also influence the nature of the ensuing immune response through the secretion of cytokines. Therefore, the capacity of immunoconjugates to elicit cytokine secretion in human APCs following stimulation was investigated as described above.
The capacity of these immunoconjugates to elicit cytokine secretion in human APCs following stimulation was investigated as described in Example 3 above.
2×10^5 APCs were incubated with or without 6.5×10^5 allogeneic CFSE-labeled tumor cells in 96-well plates (Corning) containing IMDM medium (Gibco) supplemented with 10% fetal bovine serum, 100 U/mL penicillin, 100 μg/mL streptomycin, 2 mM L-glutamine, sodium pyruvate, non-essential amino acids and, where indicated, various concentrations of unconjugated CD20 antibody, and immunoconjugates of the invention were prepared according to the examples above. […]

In assay [3] the target is protein A (Staphylococcus aureus, UniProt P38507). Conditions: 50 ug/ml in PBS, overnight, SDS-PAGE of beads and supernatants. On the procedure:
Beads were pelleted by centrifugation, supernatant was removed, and residual liquid was removed from the beads using a fine pipette tip. Non-reducing Laemmli sample buffer (100 ul) was added to the beads. Beads and supernatants were heated to 90° C. for 5 minutes and equal fractions were analyzed by SDS-PAGE (4-12% NUPAGE gel, MOPS buffer) followed by staining with Coomassie (GelCode™ Blue, ThermoFisher). Molecular weight standard is SeeBlue® Plus 2 marker (ThermoFisher LC5925).

Assay [4] concerns human APCs (myeloid cells). The assay can be described thus: APC-tumor co-culture / myeloid cell stimulation, surface markers by flow cytometry. Type of assay: cell-based. Conditions: 18 hours of stimulation. From the text: Human antigen presenting cells (APCs) were negatively selected from human peripheral blood mononuclear cells obtained from healthy blood donors (Stanford Blood Center) by density gradient centrifugation using a RosetteSep Human Monocyte Enrichment Cocktail (Stem Cell Technologies) containing monoclonal antibodies against CD2, CD3, CD8, CD19, CD56, CD66b and CD235a. Immature APCs were subsequently purified to >97% purity via negative selection using an EasySep Human Monocyte Enrichment Kit without CD16 depletion containing monoclonal antibodies against CD2, CD3, CD19, CD20, CD56, CD66b, CD123 and CD235a.
Tumor cells were resuspended in PBS with 0.1% fetal bovine serum (FBS) at 1 to 10×10^6 cells/mL. Cells were subsequently incubated with 2 μM CFSE to yield a final concentration of 1 μM. The reaction was ended after 2 minutes via the addition of 10 mL complete medium with 10% FBS and washed once with complete medium. Cells were either fixed in 2% paraformaldehyde and washed three times with PBS or left unfixed prior to freezing the cells in 10% DMSO, 20% FBS and 70% medium.
2×10^5 APCs were incubated with or without 6.5×10^5 autologous or allogeneic CFSE-labeled tumor cells in 96-well plates (Corning) containing IMDM medium (Gibco) supplemented with 10% fetal bovine serum, 100 U/mL penicillin, 100 μg/mL streptomycin, 2 mM L-glutamine, sodium pyruvate, non-essential amino acids, 50 μM 2-ME and, where indicated, various concentrations of anti-tumor antibody and the indicated adjuvants. Cells and cell-free supernatants were analyzed after 18 hours via flow cytometry.
Human antigen presenting cells (APCs) were negatively selected from human peripheral blood mononuclear cells obtained from healthy blood donors (Stanford Blood Center) by density gradient centrifugation using a RosetteSep Human Monocyte Enrichment Cocktail (Stem Cell Technologies) containing monoclonal antibodies against […]. Immature APCs were subsequently purified to >97% purity via negative selection using an EasySep Human Monocyte Enrichment Kit without CD16 depletion containing monoclonal antibodies against CD14, CD16, CD40, CD86, CD123, and HLA-DR.
2×10^5 APCs were incubated with or without 6.5×10^5 autologous or allogeneic CFSE-labeled tumor cells in 96-well plates (Corning) containing IMDM medium (Gibco) supplemented with 10% fetal bovine serum, 100 U/mL penicillin, 100 μg/mL streptomycin, 2 mM L-glutamine, sodium pyruvate, non-essential amino acids, 50 μM 2-ME and, where indicated, various concentrations of antibody. Cells and cell-free supernatants were analyzed after 18 hours via flow cytometry.
2×10^5 APCs were incubated with or without 6.5×10^5 allogeneic CFSE-labeled tumor cells in 96-well plates (Corning) containing IMDM medium (Gibco) supplemented with 10% fetal bovine serum, 100 U/mL penicillin, 100 μg/mL streptomycin, 2 mM L-glutamine, sodium pyruvate, non-essential amino acids and, where indicated, various concentrations of unconjugated CD20 antibody, and immunoconjugates of the invention were prepared according to the examples above. Cells and cell-free supernatants were analyzed after 18 hours via flow cytometry or ELISA.

T1 sequence (P12314 16-374): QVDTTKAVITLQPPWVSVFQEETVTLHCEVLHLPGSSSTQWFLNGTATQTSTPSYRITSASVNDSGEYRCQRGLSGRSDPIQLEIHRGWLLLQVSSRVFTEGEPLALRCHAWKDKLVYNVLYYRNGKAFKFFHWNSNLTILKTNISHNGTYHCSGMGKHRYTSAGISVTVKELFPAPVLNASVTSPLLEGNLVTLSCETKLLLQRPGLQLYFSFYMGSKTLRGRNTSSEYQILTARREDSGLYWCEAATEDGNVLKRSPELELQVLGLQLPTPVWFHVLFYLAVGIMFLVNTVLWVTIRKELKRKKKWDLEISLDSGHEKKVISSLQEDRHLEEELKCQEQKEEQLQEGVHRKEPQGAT

In the case of Rituximab [reference compound], in assay [1], the “binding to CD64” value is recorded as “comparable binding to CD64”. In assay [2], the “cytokine secretion (overall)” value is reported as “do not”. For the same substance, the “binding to protein A” value in assay [3] was “bind to protein A”. The “CD86 upregulation on myeloid cells” value in assay [4] (compared with the corresponding unconjugated antibody unless the value names another comparator) is “the control does not”. Further, the “APC / myeloid / dendritic cell activation (overall)” value in assay [4] (listed as unconjugated CD20 antibody) is reported as “do not”.

(Values after US11547761B1, “Antibody adjuvant conjugates” (The Board of Trustees of the Leland Stanford Junior …, priority 2016, dated 2023).)
